Patent publication US9920063B2, “Melampomagnolide B derivatives” (Board of Trustees of the University of Arkansas, priority 2013, dated 2018)
Read-outs that look alike come from different tables or passages of the source.

Tests used:
[1] = tested on: panel of 60 human cancer cell lines; experiment: Screen against a panel of 60 human tumor cell lines (single dose and five dose), panel and sub-panel statements; assay type: cell-based

C=C1C(=O)O[C@H]2[C@H]1CC/C(COC(=O)c1cc3ccccc3[nH]1)=C\CC[C@@]1(C)O[C@@H]21 [BS-1-28]
Growth inhibition, five dose screening ([1]; CCRF-CEM, HL-60 (TB), K-562, RPMI-8226, HOP-92, NCI-H522, HCT-116, HCT-15, SW-620, LOX IMVI, M14, MDA-MB-435, 786-0, ACHN, UO-31): potent nanomolar growth inhibition
Anticancer activity, five dose screening ([1]; melanoma, leukemia, colon, CNS, breast, ovarian, non-small cell lung, renal, and prostate cancers): remarkable anticancer activity
Outcome of initial single dose screening ([1]; single concentration 10^−5 M, more than 60% growth inhibition in at least eight cell lines of the panel): selected for five dose screening
CC50 (RPMI-8226): > 100 µM
Percent Growth (RPMI-8226; RPMI-8226, Log10 Concentration −4.0): −34%
Percent Growth (RPMI-8226; RPMI-8226, Log10 Concentration −5.0): −26%
Percent Growth (RPMI-8226; RPMI-8226, Log10 Concentration −6.0): −8%
Percent Growth (RPMI-8226; RPMI-8226, Log10 Concentration −7.0): 92%
Percent Growth (RPMI-8226; RPMI-8226, Log10 Concentration −8.0): 97%
GI50 (RPMI-8226; RPMI-8226, NCI five dose): 0.264 µM
TGI (RPMI-8226; RPMI-8226, NCI five dose): 8.27E−7
CC50 (SR): > 100 µM
Percent Growth (SR; SR, Log10 Concentration −4.0): −39%
Percent Growth (SR; SR, Log10 Concentration −5.0): −28%
Percent Growth (SR; SR, Log10 Concentration −6.0): 53%
Percent Growth (SR; SR, Log10 Concentration −7.0): 98%
Percent Growth (SR; SR, Log10 Concentration −8.0): 162%
GI50 (SR; SR, NCI five dose): 1.08 µM
TGI (SR; SR, NCI five dose): 4.51E−6
CC50 (HOP-92): 4.66 µM
Percent Growth (HOP-92; HOP-92, Log10 Concentration −4.0): −97%
Percent Growth (HOP-92; HOP-92, Log10 Concentration −5.0): −91%
Percent Growth (HOP-92; HOP-92, Log10 Concentration −6.0): 40%
Percent Growth (HOP-92; HOP-92, Log10 Concentration −7.0): 71%
Percent Growth (HOP-92; HOP-92, Log10 Concentration −8.0): 74%
GI50 (HOP-92; HOP-92, NCI five dose): 0.48 µM
TGI (HOP-92; HOP-92, NCI five dose): 2.02E−6
CC50 (NCI-H226): 7.01 µM
Percent Growth (NCI-H226; NCI-H226, Log10 Concentration −4.0): −71%
Percent Growth (NCI-H226; NCI-H226, Log10 Concentration −5.0): −73%
Percent Growth (NCI-H226; NCI-H226, Log10 Concentration −6.0): 74%
Percent Growth (NCI-H226; NCI-H226, Log10 Concentration −7.0): 88%
Percent Growth (NCI-H226; NCI-H226, Log10 Concentration −8.0): 92%
GI50 (NCI-H226; NCI-H226, NCI five dose): 1.47 µM
TGI (NCI-H226; NCI-H226, NCI five dose): 3.21E−6
CC50 (NCI-H322M): 6.47 µM
Percent Growth (NCI-H322M; NCI-H322M, Log10 Concentration −4.0): −89%
Percent Growth (NCI-H322M; NCI-H322M, Log10 Concentration −5.0): −82%
Percent Growth (NCI-H322M; NCI-H322M, Log10 Concentration −6.0): 88%
Percent Growth (NCI-H322M; NCI-H322M, Log10 Concentration −7.0): 95%
Percent Growth (NCI-H322M; NCI-H322M, Log10 Concentration −8.0): 81%
GI50 (NCI-H322M; NCI-H322M, NCI five dose): 1.68 µM
TGI (NCI-H322M; NCI-H322M, NCI five dose): 3.29E−6
CC50 (HCC-2998): 8.77 µM
Percent Growth (HCC-2998; HCC-2998, Log10 Concentration −4.0): −84%
Percent Growth (HCC-2998; HCC-2998, Log10 Concentration −5.0): −59%
Percent Growth (HCC-2998; HCC-2998, Log10 Concentration −6.0): 104%
Percent Growth (HCC-2998; HCC-2998, Log10 Concentration −7.0): 104%
Percent Growth (HCC-2998; HCC-2998, Log10 Concentration −8.0): 103%
GI50 (HCC-2998; HCC-2998, NCI five dose): 2.14 µM
TGI (HCC-2998; HCC-2998, NCI five dose): 4.33E−6
CC50 (SNB-19): 7.33 µM
Percent Growth (SNB-19; SNB-19, Log10 Concentration −4.0): −64%
Percent Growth (SNB-19; SNB-19, Log10 Concentration −5.0): −70%
Percent Growth (SNB-19; SNB-19, Log10 Concentration −6.0): 81%
Percent Growth (SNB-19; SNB-19, Log10 Concentration −7.0): 92%
Percent Growth (SNB-19; SNB-19, Log10 Concentration −8.0): 57%
GI50 (SNB-19; SNB-19, NCI five dose): 1.6 µM
TGI (SNB-19; SNB-19, NCI five dose): 3.93E−6
CC50 (SNB-75): 4.72 µM
Percent Growth (SNB-75; SNB-75, Log10 Concentration −4.0): −58%
Percent Growth (SNB-75; SNB-75, Log10 Concentration −5.0): −98%
Percent Growth (SNB-75; SNB-75, Log10 Concentration −6.0): 50%
Percent Growth (SNB-75; SNB-75, Log10 Concentration −7.0): 77%
Percent Growth (SNB-75; SNB-75, Log10 Concentration −8.0): 72%
GI50 (SNB-75; SNB-75, NCI five dose): 1.01 µM
TGI (SNB-75; SNB-75, NCI five dose): 2.19E−6
CC50 (MALME-3M): 6.07 µM
Percent Growth (MALME-3M; MALME-3M, Log10 Concentration −4.0): −82%
Percent Growth (MALME-3M; MALME-3M, Log10 Concentration −5.0): −87%
Percent Growth (MALME-3M; MALME-3M, Log10 Concentration −6.0): 82%
Percent Growth (MALME-3M; MALME-3M, Log10 Concentration −7.0): 91%
Percent Growth (MALME-3M; MALME-3M, Log10 Concentration −8.0): 91%
GI50 (MALME-3M; MALME-3M, NCI five dose): 1.56 µM
TGI (MALME-3M; MALME-3M, NCI five dose): 3.07E−6
CC50 (SK-MEL-28): 5.74 µM
Percent Growth (SK-MEL-28; SK-MEL-28, Log10 Concentration −4.0): −93%
Percent Growth (SK-MEL-28; SK-MEL-28, Log10 Concentration −5.0): 47%
Percent Growth (SK-MEL-28; SK-MEL-28, Log10 Concentration −6.0): 67%
Percent Growth (SK-MEL-28; SK-MEL-28, Log10 Concentration −7.0): 101%
Percent Growth (SK-MEL-28; SK-MEL-28, Log10 Concentration −8.0): 90%
GI50 (SK-MEL-28; SK-MEL-28, NCI five dose): 1.28 µM
TGI (SK-MEL-28; SK-MEL-28, NCI five dose): 2.72E−6
CC50 (UACC-62): 6.98 µM
Percent Growth (UACC-62; UACC-62, Log10 Concentration −4.0): −15%
Percent Growth (UACC-62; UACC-62, Log10 Concentration −5.0): −73%
Percent Growth (UACC-62; UACC-62, Log10 Concentration −6.0): 75%
Percent Growth (UACC-62; UACC-62, Log10 Concentration −7.0): 91%
Percent Growth (UACC-62; UACC-62, Log10 Concentration −8.0): 97%
GI50 (UACC-62; UACC-62, NCI five dose): 1.47 µM
TGI (UACC-62; UACC-62, NCI five dose): 3.21E−6
CC50 (OVCAR-4): 8.43 µM
Percent Growth (OVCAR-4; OVCAR-4, Log10 Concentration −4.0): −84%
Percent Growth (OVCAR-4; OVCAR-4, Log10 Concentration −5.0): −58%
Percent Growth (OVCAR-4; OVCAR-4, Log10 Concentration −6.0): 48%
Percent Growth (OVCAR-4; OVCAR-4, Log10 Concentration −7.0): 88%
Percent Growth (OVCAR-4; OVCAR-4, Log10 Concentration −8.0): 4%
TGI (OVCAR-4; OVCAR-4, NCI five dose): 2.85E−6
CC50 (OVCAR-5): 8.22 µM
Percent Growth (OVCAR-5; OVCAR-5, Log10 Concentration −4.0): −88%
Percent Growth (OVCAR-5; OVCAR-5, Log10 Concentration −5.0): −59%
Percent Growth (OVCAR-5; OVCAR-5, Log10 Concentration −6.0): 57%
Percent Growth (OVCAR-5; OVCAR-5, Log10 Concentration −7.0): 96%
Percent Growth (OVCAR-5; OVCAR-5, Log10 Concentration −8.0): 85%
GI50 (OVCAR-5; OVCAR-5, NCI five dose): 1.14 µM
TGI (OVCAR-5; OVCAR-5, NCI five dose): 3.07E−6
CC50 (ACHN): 4.22 µM
Percent Growth (ACHN; ACHN, Log10 Concentration −4.0): −95%
Percent Growth (ACHN; ACHN, Log10 Concentration −5.0): −91%
Percent Growth (ACHN; ACHN, Log10 Concentration −6.0): 19%
Percent Growth (ACHN; ACHN, Log10 Concentration −7.0): 55%
Percent Growth (ACHN; ACHN, Log10 Concentration −8.0): 76%
GI50 (ACHN; ACHN, NCI five dose): 0.342 µM
TGI (ACHN; ACHN, NCI five dose): 1.49E−6
CC50 (CAKI-1): 4.82 µM
Percent Growth (CAKI-1; CAKI-1, Log10 Concentration −4.0): −100%
Percent Growth (CAKI-1; CAKI-1, Log10 Concentration −5.0): −99%
Percent Growth (CAKI-1; CAKI-1, Log10 Concentration −6.0): 55%
Percent Growth (CAKI-1; CAKI-1, Log10 Concentration −7.0): 90%
Percent Growth (CAKI-1; CAKI-1, Log10 Concentration −8.0): 86%
GI50 (CAKI-1; CAKI-1, NCI five dose): 1.08 µM
TGI (CAKI-1; CAKI-1, NCI five dose): 2.18E−6
CC50 (TK-10): 5.39 µM
Percent Growth (TK-10; TK-10, Log10 Concentration −4.0): −98%
Percent Growth (TK-10; TK-10, Log10 Concentration −5.0): −96%
Percent Growth (TK-10; TK-10, Log10 Concentration −6.0): 74%
Percent Growth (TK-10; TK-10, Log10 Concentration −7.0): 117%
Percent Growth (TK-10; TK-10, Log10 Concentration −8.0): 95%
GI50 (TK-10; TK-10, NCI five dose): 1.39 µM
TGI (TK-10; TK-10, NCI five dose): 2.73E−6
CC50 (PC-3): 6.45 µM
Percent Growth (PC-3; PC-3, Log10 Concentration −4.0): −94%
Percent Growth (PC-3; PC-3, Log10 Concentration −5.0): −79%
Percent Growth (PC-3; PC-3, Log10 Concentration −6.0): 73%
Percent Growth (PC-3; PC-3, Log10 Concentration −7.0): 87%
Percent Growth (PC-3; PC-3, Log10 Concentration −8.0): 88%
GI50 (PC-3; PC-3, NCI five dose): 1.42 µM
TGI (PC-3; PC-3, NCI five dose): 3.62E−4
